Reference: patent publication US9610365B2, “Anthracenyl-tetralactam macrocycles and their use in detecting a target saccharide” (UNIVERSITY OF BRISTOL, priority 2012, dated 2017)
One block for each molecule: values may come before it.

Legend:
[1] = 1H NMR titration, binding to carbohydrate substrate; conditions: 1H NMR titration in D2O at 298 K
Description: (§1) The binding of receptor compound 3 to carbohydrate substrates, in aqueous solution, was studied initially by ^1H NMR titrations at 298 K. The saccharides used as test substrates are shown in FIG. 7.
(§2) Titrations were performed on a Varian™ 500 MHz spectrometer. Solutions of reducing carbohydrates were prepared in D2O and kept overnight at room temperature before the titration experiments, in order to ensure equilibration of anomers. In a typical titration, aliquots of carbohydrate solution were added to receptor solution (DSS as internal standard) and the ^1H NMR spectra were recorded. Variations in chemical shifts were entered into a specifically written non-linear least squares curve-fitting program implemented within Excel™. Assuming 1:1 stoichiometry, the program calculates Ka and the limiting change in chemical shift Δδ. The assumption is supported by the generally good fits between observed and calculated data.

[2] = Photobleaching under continuous UV irradiation in a fluorescence spectrometer; format: physicochemical; conditions: in 5 hours
Description: Under continuous UV irradiation in a fluorescence spectrometer, emission decayed by <10% in 5 hours. In a practical glucose monitoring device this would translate to a long lifetime as the receptor compound would be subjected only to short pulses of light every few seconds.

[3] = 1H NMR titration, binding to carbohydrate substrate; conditions: 1H NMR titration in D2O at 298 K; ~0 = too small for analysis
Description: as §1, §2

[4] = Isothermal titration calorimetry (ITC); format: binding
Description: (§3) Experiments were performed on a VP-ITC™ (Microcal, Inc., Northampton, Mass.) at 298 K. Stock solutions of carbohydrates were made up in pure HPLC grade water and allowed to equilibrate overnight. Receptor solutions were made up in pure water. All the solutions were degassed and thermostated using the ThermoVac™ accessory before titration. The sample cell volume was 1.4226 mL. Each titration experiment included 25-35 successive injections.

[5] = 1H NMR titration, binding to carbohydrate substrate; conditions: 1H NMR titration in D2O at 298 K; remark: listed apart in the source
Description: as §1, §2

[6] = 1H NMR titration, summary for non-target monosaccharides; format: binding; conditions: all non-target monosaccharides aside from methyl α-D-glucoside
Description: as §1, §2

[7] = 1H NMR titration, binding to carbohydrate substrate; conditions: 1H NMR titration in D2O at 298 K; remark: listed apart in the source
Description: as §1, §2

[8] = as above
Description: as §1, §2

[9] = as above; conditions: 1H NMR titration in D2O at 298 K; remark: listed apart in the source
Description: as §1, §2

[10] = Fluorescence emission properties of the receptor; format: physicochemical
Description: Fluorescence titrations were carried out at 298 K on a PerkinElmer™ LS45 spectrometer in PBS (phosphate buffered saline) buffer solution (pH 7.1, 100 mM). The carbohydrate stock solutions were prepared by dissolving the carbohydrates in buffer containing the receptor at the concentration to be used in the titration (thus avoiding dilution of the receptor during the experiment). The solutions were kept overnight at room temperature before the titration experiments, in order to ensure equilibration of anomers. The wavelength to be used for fluorescence excitation was determined by measurement of the UV-visible spectrum of receptor 3 in the presence of carbohydrates. 394 nm was chosen, because at this wavelength the absorption of receptor was almost independent of carbohydrate concentration. In a typical titration, aliquots of carbohydrate-receptor solution were added to receptor solution (2.5 mL) in a quartz cuvette (3 mL, 10 mm pathway). […]
It can be seen that on excitation with UV light at 394 nm, 3 emitted in the blue-violet region, peaking at 423 nm, with a quantum yield of 2.4% (20 μm aqueous solution). […] Binding constants obtained by this method were in good agreement with those measured by NMR titrations (see Table 1). Moreover these fluorescence characteristics are promising for practical glucose sensing, especially when compared to biphenyl-based synthetic lectins. […]

[11] = 1H NMR titration, binding to carbohydrate substrate; conditions: 1H NMR titration in D2O at 298 K; ~0 = too small for analysis; remark: listed apart in the source
Description: as §1, §2

[12] = as above; conditions: 1H NMR titration in D2O at 298 K; remark: listed apart in the source
Description: as §1, §2

[13] = Isothermal titration calorimetry (ITC); format: binding; conditions: ITC titration in water at 298 K
Description: as §3

[14] = Solubility and aggregation in water/D2O (NMR dilution studies); format: physicochemical
Description: The compound was dissolved in D2O at concentrations up to ˜4 mM giving clean, if slightly broadened, ^1H NMR spectra. Minor signal movements were observed on dilution to ˜1 mM but no further effect was observed below this concentration, implying that the system is monomeric at 1 mM or less.

[15] = 1H NMR titration, binding to carbohydrate substrate; conditions: 1H NMR titration in D2O at 298 K; ~0 = too small for analysis; remark: listed apart in the source
Description: as §1, §2

[16] = as above; conditions: 1H NMR titration in D2O at 298 K; ~0 = too small for analysis; remark: listed apart in the source
Description: as §1, §2

[17] = as above; conditions: 1H NMR titration in D2O at 298 K; remark: listed apart in the source
Description: as §1, §2

[18] = as above; conditions: for Ka: 1H NMR titration in D2O at 298 K
Description: as §1, §2

[19] = as above; conditions: 1H NMR titration in D2O at 298 K; remark: listed apart in the source
Description: as §1, §2

[20] = as above; conditions: 1H NMR titration in D2O at 298 K; remark: listed apart in the source
Description: as §1, §2

[21] = as above; conditions: 1H NMR titration in D2O at 298 K; remark: listed apart in the source
Description: as §1, §2

[22] = as above; conditions: 1H NMR titration in D2O at 298 K; remark: listed apart in the source
Description: as §1, §2

Fluorescence titration = format: binding; conditions: for Ka: fluorescence titration in phosphate buffer solution (pH 7.1, 0.1 M) at 298 K
Description: Fluorescence titrations were carried out at 298 K on a PerkinElmer™ LS45 spectrometer in PBS (phosphate buffered saline) buffer solution (pH 7.1, 100 mM). The carbohydrate stock solutions were prepared by dissolving the carbohydrates in buffer containing the receptor at the concentration to be used in the titration (thus avoiding dilution of the receptor during the experiment). The solutions were kept overnight at room temperature before the titration experiments, in order to ensure equilibration of anomers. The wavelength to be used for fluorescence excitation was determined by measurement of the UV-visible spectrum of receptor 3 in the presence of carbohydrates. 394 nm was chosen, because at this wavelength the absorption of receptor was almost independent of carbohydrate concentration. In a typical titration, aliquots of carbohydrate-receptor solution were added to receptor solution (2.5 mL) in a quartz cuvette (3 mL, 10 mm pathway). The solution was stirred for 2 minutes and left to stand for another 1 minute before the emission spectrum was recorded. Binding constants were calculated using non-linear curve fitting assuming 1:1 binding stoichiometry, employing both Kaleidagraph™ and a customised Excel™ spreadsheet. Errors were estimated at <5%.

[23] = 1H NMR titration, binding to carbohydrate substrate; conditions: 1H NMR titration in D2O at 298 K; remark: listed apart in the source
Description: as §1, §2

[24] = as above; conditions: 1H NMR titration in D2O at 298 K; ~0 = too small for analysis; remark: listed apart in the source
Description: as §1, §2

[25] = as above; conditions: 1H NMR titration in D2O at 298 K; remark: listed apart in the source
Description: as §1, §2

[26] = as above; conditions: 1H NMR titration in D2O at 298 K; remark: listed apart in the source
Description: as §1, §2

[27] = as above; conditions: 1H NMR titration in D2O at 298 K; ~0 = too small for analysis; remark: listed apart in the source
Description: as §1, §2

[28] = as above; conditions: 1H NMR titration in D2O at 298 K; ~0 = too small for analysis; remark: listed apart in the source
Description: as §1, §2

[29] = 1H NMR titration, 1.1 mM receptor, glucose 0 to 200 mM, 298 K
[30] = 0.125 mM to 2 mM in D2O at 298 K

Structure (SMILES): O=C(O)CCOCC(COCCC(=O)O)(COCCC(=O)O)NC(=O)c1cc2cc(c1)C(=O)NCc1c3ccccc3c(c3ccccc13)CNC(=O)c1cc(cc(C(=O)NC(COCCC(=O)O)(COCCC(=O)O)COCCC(=O)O)c1)C(=O)NCc1c3ccccc3c(c3ccccc13)CNC2=O [Compound 3]
- Ka [1]: 1 M⁻¹
- emission decay (photobleaching) [2]: < 10%
- Ka [3]: ~0 M⁻¹
- Ka ([4]; ITC titration in water at 298 K): 55 M⁻¹
- TΔS of binding ([4]; ITC, 298 K, water): -1.4 kcal/mol
- ΔH of binding ([4]; ITC, 298 K, water): -3.8 kcal/mol
- Ka [5]: 87 M⁻¹
- Ka [6]: ≤ 1 m^−1
- Ka [7]: 9 M⁻¹
- Ka ([8]; 1H NMR titration in D2O at 298 K, ~0 = too small for analysis): ~0 M⁻¹
- response when added to receptor ([8]; mannitol): Neither produced any response
- Ka [9]: 6 M⁻¹
- quantum yield ([10]; 20 μm aqueous solution, excitation 394 nm): 2.4%
- emission peak ([10]; excitation with UV light at 394 nm): 423 nm
- Ka [11]: ~0 M⁻¹
- Ka [12]: 28 M⁻¹
- Ka [13]: 101 M⁻¹
- concentration at which system is monomeric ([14]; D2O, NMR dilution): ≤ 1000 µM
- concentration dissolved in D2O ([14]; giving clean 1H NMR spectra): ~4000 µM
- Ka [15]: ~0 M⁻¹
- Ka [16]: ~0 M⁻¹
- Ka [17]: 16 M⁻¹
- Ka [18]: 56 M⁻¹
- Ka ([18]; ~0 = too small for analysis): ~0 M⁻¹
- association constant Ka from movement of proton E [18, 29]: 58 M⁻¹
- association constant Ka from movement of proton F [18, 29]: 54 M⁻¹
- receptor occupancy ([18]; 310 K, across the physiological range of 2-10 mM glucose): 6-25%
- response when added to receptor ([18]; lactate): Neither produced any response
- affinity measured by NMR titration ([18]; physiological temperature (310 K)): 33 M⁻¹
- Ka [19]: 10 M⁻¹
- Ka [20]: 36 M⁻¹
- Ka [21]: 96 M⁻¹
- Ka [22]: 35 M⁻¹
- Ka (Fluorescence titration; binding data at 423 nm): 58 M⁻¹
- Ka (Fluorescence titration; with D -lactose): 9 M⁻¹
- Ka (Fluorescence titration; with methyl β-D-glucoside 10): 121 M⁻¹
- increase of emission intensity on addition of glucose (factor) (Fluorescence titration; receptor 18.8 μM, excitation 394 nm): up to 2.5
- Ka [23]: 1 M⁻¹
- Ka [24]: ~0 M⁻¹
- Ka [25]: 24 M⁻¹
- Ka [26]: 1 M⁻¹
- Ka [27]: ~0 M⁻¹
- Ka [28]: ~0 M⁻¹

- Ka [7]: too small to measure
- Ka [18]: too small to measure
Structure (SMILES): O=C([O-])CCOCC(COCCC(=O)[O-])(COCCC(=O)[O-])NC(=O)c1cc2cc(c1)C(=O)NCc1c3ccccc3c(c3ccccc13)CNC(=O)c1cc(cc(C(=O)NC(COCCC(=O)[O-])(COCCC(=O)[O-])COCCC(=O)[O-])c1)C(=O)NCc1ccc(cc1)CNC2=O.[Na+].[Na+].[Na+].[Na+].[Na+].[Na+] [Compound 9]

- aggregation during NMR dilution studies [14, 30]: no indication of aggregation
- solubility in water [14, 30]: good solubility in water
- Ka [18]: 89 M⁻¹
- increase in fluorescence emission upon binding with D-glucose (Fluorescence titration; em 423 nm, ex 395 nm, 18.8 μM, phosphate buffer pH 7.1): approximately three-fold
Structure (SMILES): O=C([O-])CCC(CCC(=O)[O-])(CCC(=O)[O-])NC(=O)CCC(CCC(=O)NC(CCC(=O)[O-])(CCC(=O)[O-])CCC(=O)[O-])(CCC(=O)NC(CCC(=O)[O-])(CCC(=O)[O-])CCC(=O)[O-])NC(=O)c1cc2cc(c1)C(=O)NCc1c3ccccc3c(c3ccccc13)CNC(=O)c1cc(cc(C(=O)NC(CCC(=O)NC(CCC(=O)[O-])(CCC(=O)[O-])CCC(=O)[O-])(CCC(=O)NC(CCC(=O)[O-])(CCC(=O)[O-])CCC(=O)[O-])CCC(=O)NC(CCC(=O)[O-])(CCC(=O)[O-])CCC(=O)[O-])c1)C(=O)NCc1c3ccccc3c(c3ccccc13)CNC2=O.[Na+].[Na+].[Na+].[Na+].[Na+].[Na+].[Na+].[Na+].[Na+].[Na+].[Na+].[Na+].[Na+].[Na+].[Na+].[Na+].[Na+].[Na+] [Compound 13]
- Ka (Fluorescence titration; binding data at 423 nm): 87 M⁻¹
